The text below walks through data of patent US9340590B2 (priority 2011, dated 2016).

Positions of bridges follow the written chain, without caps; N, C: chain ends. Non-standard residues stand in square brackets, D forms with d. Residues, ends and D or L forms follow the SMILES beside them. Phe(4-COOH) = N[C@@H](Cc1ccc(C(=O)O)cc1)C(=O)O; 2Nal = N[C@@H](Cc1ccc2ccccc2c1)C(=O)O; 2Pal = N[C@@H](Cc1ccccn1)C(=O)O; 3Pal = N[C@@H](Cc1cccnc1)C(=O)O

One assay has as its target hNav1.7 (Homo sapiens, UniProt Q15858). Briefly: cell-based. Conditions: Nav1.7 Use IC50.
For another assay, the target named is hNav1.5 (Homo sapiens, UniProt Q14524). Briefly: cell-based.
Chain of hNav1.5 (Q14524 whole entry, looked up): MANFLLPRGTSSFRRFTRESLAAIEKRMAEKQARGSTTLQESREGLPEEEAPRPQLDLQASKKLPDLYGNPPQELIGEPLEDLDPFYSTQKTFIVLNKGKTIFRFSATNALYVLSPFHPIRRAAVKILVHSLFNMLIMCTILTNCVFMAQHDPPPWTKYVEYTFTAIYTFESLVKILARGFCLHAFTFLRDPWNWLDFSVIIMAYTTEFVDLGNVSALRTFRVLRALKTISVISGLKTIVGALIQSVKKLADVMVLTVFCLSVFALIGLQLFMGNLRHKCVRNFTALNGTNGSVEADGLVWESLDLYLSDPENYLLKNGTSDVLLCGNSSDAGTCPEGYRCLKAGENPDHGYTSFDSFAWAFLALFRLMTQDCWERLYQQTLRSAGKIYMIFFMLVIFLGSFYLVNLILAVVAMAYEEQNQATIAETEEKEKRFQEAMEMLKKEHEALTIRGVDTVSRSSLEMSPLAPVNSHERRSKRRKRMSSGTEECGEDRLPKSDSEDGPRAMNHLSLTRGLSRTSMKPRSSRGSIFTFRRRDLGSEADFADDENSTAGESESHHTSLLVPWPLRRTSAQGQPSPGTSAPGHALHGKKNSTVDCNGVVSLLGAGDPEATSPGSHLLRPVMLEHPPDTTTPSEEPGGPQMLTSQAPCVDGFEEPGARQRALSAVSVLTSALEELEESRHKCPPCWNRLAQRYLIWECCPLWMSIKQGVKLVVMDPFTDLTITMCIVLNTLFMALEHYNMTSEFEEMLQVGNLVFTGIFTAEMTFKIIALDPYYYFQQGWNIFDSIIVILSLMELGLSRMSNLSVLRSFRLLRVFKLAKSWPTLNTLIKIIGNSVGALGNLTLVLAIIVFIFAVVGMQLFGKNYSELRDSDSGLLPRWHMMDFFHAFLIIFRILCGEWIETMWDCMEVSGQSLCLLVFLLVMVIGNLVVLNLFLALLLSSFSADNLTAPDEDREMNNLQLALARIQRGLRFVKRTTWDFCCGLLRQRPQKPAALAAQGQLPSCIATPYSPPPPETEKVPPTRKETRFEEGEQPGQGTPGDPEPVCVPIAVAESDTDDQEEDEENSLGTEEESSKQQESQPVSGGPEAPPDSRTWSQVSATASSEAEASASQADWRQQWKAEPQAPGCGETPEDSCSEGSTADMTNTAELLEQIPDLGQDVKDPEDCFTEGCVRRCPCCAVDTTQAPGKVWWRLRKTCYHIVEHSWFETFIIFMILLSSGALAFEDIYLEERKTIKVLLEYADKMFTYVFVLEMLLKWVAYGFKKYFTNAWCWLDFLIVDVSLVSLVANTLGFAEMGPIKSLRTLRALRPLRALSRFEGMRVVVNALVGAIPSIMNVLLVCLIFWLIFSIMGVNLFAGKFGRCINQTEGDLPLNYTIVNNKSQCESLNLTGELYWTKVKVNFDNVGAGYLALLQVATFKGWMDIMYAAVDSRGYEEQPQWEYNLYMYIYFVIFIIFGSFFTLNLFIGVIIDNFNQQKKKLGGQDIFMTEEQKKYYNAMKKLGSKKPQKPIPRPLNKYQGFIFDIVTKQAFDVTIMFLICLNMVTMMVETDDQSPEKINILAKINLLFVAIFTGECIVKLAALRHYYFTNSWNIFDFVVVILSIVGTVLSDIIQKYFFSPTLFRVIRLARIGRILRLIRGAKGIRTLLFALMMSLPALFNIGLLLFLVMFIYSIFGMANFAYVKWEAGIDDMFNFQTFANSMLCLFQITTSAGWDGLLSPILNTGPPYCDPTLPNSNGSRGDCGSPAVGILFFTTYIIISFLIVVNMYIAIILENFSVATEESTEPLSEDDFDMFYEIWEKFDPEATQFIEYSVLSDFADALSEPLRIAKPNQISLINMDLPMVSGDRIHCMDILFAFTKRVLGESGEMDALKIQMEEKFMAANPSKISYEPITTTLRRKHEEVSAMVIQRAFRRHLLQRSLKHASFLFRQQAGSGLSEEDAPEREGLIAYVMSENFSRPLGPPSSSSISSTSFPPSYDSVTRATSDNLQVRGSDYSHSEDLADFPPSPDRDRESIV

The term IC50 denotes the concentration at which inhibition is half-maximal. Read a low IC50 as greater potency in that assay.

Chain of hNav1.7 (Q15858 whole entry, looked up): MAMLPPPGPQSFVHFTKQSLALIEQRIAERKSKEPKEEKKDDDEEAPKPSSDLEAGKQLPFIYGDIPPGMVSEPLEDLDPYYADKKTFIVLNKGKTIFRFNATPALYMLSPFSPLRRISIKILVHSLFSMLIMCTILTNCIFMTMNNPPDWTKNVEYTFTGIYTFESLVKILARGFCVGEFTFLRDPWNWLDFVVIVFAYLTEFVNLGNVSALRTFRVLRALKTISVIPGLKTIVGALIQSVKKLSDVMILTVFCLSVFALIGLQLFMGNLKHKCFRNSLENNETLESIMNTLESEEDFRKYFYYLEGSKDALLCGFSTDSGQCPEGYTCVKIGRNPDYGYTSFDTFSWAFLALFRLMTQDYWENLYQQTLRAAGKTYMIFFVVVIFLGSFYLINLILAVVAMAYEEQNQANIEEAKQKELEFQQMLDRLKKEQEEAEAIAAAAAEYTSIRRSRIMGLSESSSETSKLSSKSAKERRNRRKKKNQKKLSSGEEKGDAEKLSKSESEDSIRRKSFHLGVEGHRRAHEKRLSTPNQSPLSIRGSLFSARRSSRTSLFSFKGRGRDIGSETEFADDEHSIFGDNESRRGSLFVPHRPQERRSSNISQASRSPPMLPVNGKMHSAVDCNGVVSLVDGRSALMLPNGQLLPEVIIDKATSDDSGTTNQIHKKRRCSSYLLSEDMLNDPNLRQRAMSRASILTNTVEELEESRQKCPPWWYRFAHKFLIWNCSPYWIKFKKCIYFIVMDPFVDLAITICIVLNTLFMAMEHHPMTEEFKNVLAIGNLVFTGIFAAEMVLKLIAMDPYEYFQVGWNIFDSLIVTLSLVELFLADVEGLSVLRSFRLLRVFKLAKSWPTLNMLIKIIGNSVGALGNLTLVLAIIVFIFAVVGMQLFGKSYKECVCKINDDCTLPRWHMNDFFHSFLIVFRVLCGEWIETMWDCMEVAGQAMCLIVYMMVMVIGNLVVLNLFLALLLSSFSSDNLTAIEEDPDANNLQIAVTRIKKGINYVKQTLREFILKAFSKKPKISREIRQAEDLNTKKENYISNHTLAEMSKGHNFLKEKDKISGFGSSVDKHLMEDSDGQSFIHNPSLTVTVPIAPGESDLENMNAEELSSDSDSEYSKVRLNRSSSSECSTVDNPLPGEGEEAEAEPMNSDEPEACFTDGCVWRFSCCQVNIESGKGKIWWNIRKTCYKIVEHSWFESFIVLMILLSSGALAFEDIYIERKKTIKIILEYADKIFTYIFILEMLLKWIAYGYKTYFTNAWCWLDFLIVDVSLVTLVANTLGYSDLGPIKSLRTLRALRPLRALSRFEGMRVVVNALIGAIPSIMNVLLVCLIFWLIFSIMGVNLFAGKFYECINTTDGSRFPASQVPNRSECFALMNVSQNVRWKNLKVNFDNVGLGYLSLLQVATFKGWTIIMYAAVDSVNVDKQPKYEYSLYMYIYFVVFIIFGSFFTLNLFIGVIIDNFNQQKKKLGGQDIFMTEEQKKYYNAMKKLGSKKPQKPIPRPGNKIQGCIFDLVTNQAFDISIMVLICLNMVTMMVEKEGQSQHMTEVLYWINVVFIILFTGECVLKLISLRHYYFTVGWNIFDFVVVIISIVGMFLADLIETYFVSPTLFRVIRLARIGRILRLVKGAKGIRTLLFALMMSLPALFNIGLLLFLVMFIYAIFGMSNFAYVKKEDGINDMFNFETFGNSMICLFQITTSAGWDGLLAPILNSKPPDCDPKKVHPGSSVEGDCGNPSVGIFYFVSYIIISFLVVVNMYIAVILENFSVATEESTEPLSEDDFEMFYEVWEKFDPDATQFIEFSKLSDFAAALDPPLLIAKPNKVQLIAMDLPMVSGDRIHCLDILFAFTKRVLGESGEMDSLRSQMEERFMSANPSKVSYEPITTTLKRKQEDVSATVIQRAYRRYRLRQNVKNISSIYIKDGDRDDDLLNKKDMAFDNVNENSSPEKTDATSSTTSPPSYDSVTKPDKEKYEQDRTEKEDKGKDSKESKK

For `CC[C@@H]1NC(=O)CNC(=O)[C@H](CC(C)C)NC(=O)[C@@H](NC(=O)[C@@H](N)CC(=O)O)CSSC[C@@H]2NC(=O)[C@@H]3CSSC[C@@H](C(=O)N[C@@H](CCCCN)C(=O)N[C@@H](Cc4ccc(O)cc4)C(=O)N[C@H](C(=O)N[C@@H](Cc4ccccc4)C(N)=O)C(C)C)NC(=O)[C@H](Cc4c[nH]c5ccccc45)NC(=O)[C@H](CCCCN)NC(=O)[C@H](Cc4c[nH]cn4)NC(=O)[C@H]([C@@H](C)O)NC(=O)[C@H](CCCNC(=N)N)NC(=O)[C@H](CO)NC(=O)[C@H](CSSC[C@H](NC(=O)[C@H](CCCCN)NC(=O)[C@H](CCCNC(=N)N)NC(=O)[C@H](CC(C)C)NC1=O)C(=O)N[C@@H]([C@@H](C)CC)C(=O)N1CCC[C@H]1C(=O)N[C@@H](CC(=O)O)C(=O)N[C@@H](CC(N)=O)C(=O)N[C@@H](CC(=O)O)C(=O)N[C@@H](CCCCN)C(=O)N3)NC(=O)[C@H](C(C)C)NC(=O)[C@H](CC(C)C)NC(=O)[C@H](CC(N)=O)NC(=O)[C@@H]1CCCN1C(=O)[C@H](CCCNC(=N)N)NC2=O` [[2-Abu5;Leu6]GpTx-1(1-34)], the 50% inhibitory concentration (IC50) is 22 nM at hNav1.7 and above 10000 nM against hNav1.5.

For the compound `CC[C@H](C)[C@@H]1NC(=O)[C@@H]2CSSC[C@@H]3NC(=O)[C@H](C(C)C)NC(=O)[C@H](CC(C)C)NC(=O)[C@H](CC(N)=O)NC(=O)[C@@H]4CCCN4C(=O)[C@H](CCCNC(=N)N)NC(=O)[C@H](CSSC[C@H](NC(=O)[C@@H](N)CC(=O)O)C(=O)N[C@@H](CC(C)C)C(=O)NCC(=O)N[C@@H](Cc4ccccc4)C(=O)N[C@@H](CCSC)C(=O)N[C@@H](CCCNC(=N)N)C(=O)N[C@@H](CCCCN)C(=O)N2)NC(=O)[C@H](CSSC[C@@H](C(=O)N[C@@H](CCCCN)C(=O)N[C@@H](Cc2ccc(O)cc2)C(=O)N[C@H](C(=O)N[C@@H](Cc2ccccc2)C(N)=O)C(C)C)NC(=O)[C@H](Cc2ccc4ccccc4c2)NC(=O)[C@H](CCCCN)NC(=O)[C@H](Cc2c[nH]cn2)NC(=O)[C@H]([C@@H](C)O)NC(=O)[C@H](CCCNC(=N)N)NC(=O)[C@H](CO)NC3=O)NC(=O)[C@H](CCCCN)NC(=O)[C@H](CC(=O)O)NC(=O)[C@H](CC(N)=O)NC(=O)[C@H](CC(=O)O)NC(=O)[C@@H]2CCCN2C1=O` [[2-Nal29]GpTx-1(1-34)] (H-DCLGFMRKCIPDNDKCCRPNLVCSRTHK[2Nal]CKYVF-NH2; disulfide 2-17, 9-23, 16-30), the IC50 against hNav1.7 was 66 nM; against hNav1.5, above 10000 nM.

On to `CC[C@H](C)[C@@H]1NC(=O)[C@@H]2CSSC[C@@H]3NC(=O)[C@H](C(C)C)NC(=O)[C@H](CC(C)C)NC(=O)[C@H](CC(N)=O)NC(=O)[C@@H]4CCCN4C(=O)[C@H](Cc4ccccn4)NC(=O)[C@H](CSSC[C@H](NC(=O)[C@@H](N)CC(=O)O)C(=O)N[C@@H](CC(C)C)C(=O)NCC(=O)N[C@@H](Cc4ccccc4)C(=O)N[C@@H](CCSC)C(=O)N[C@@H](CCCNC(=N)N)C(=O)N[C@@H](CCCCN)C(=O)N2)NC(=O)[C@H](CSSC[C@@H](C(=O)N[C@@H](CCCCN)C(=O)N[C@@H](Cc2ccc(O)cc2)C(=O)N[C@H](C(=O)N[C@@H](Cc2ccccc2)C(N)=O)C(C)C)NC(=O)[C@H](Cc2c[nH]c4ccccc24)NC(=O)[C@H](CCCCN)NC(=O)[C@H](Cc2cnc[nH]2)NC(=O)[C@H]([C@@H](C)O)NC(=O)[C@H](CCCNC(=N)N)NC(=O)[C@H](CO)NC3=O)NC(=O)[C@H](CCCCN)NC(=O)[C@H](CC(=O)O)NC(=O)[C@H](CC(N)=O)NC(=O)[C@H](CC(=O)O)NC(=O)[C@@H]2CCCN2C1=O` [[2PAL18]GpTx-1(1-34)] (H-DCLGFMRKCIPDNDKCC[2Pal]PNLVCSRTHKWCKYVF-NH2; disulfide 2-17, 9-23, 16-30), for which the figures for the IC50 at hNav1.7 and against hNav1.5 were 3 nM and 13700 nM, respectively.

With `CC[C@H](C)[C@@H]1NC(=O)[C@@H]2CSSC[C@@H]3NC(=O)[C@H](Cc4ccccn4)NC(=O)[C@H](CC(C)C)NC(=O)[C@H](CC(N)=O)NC(=O)[C@@H]4CCCN4C(=O)[C@H](CCCNC(=N)N)NC(=O)[C@H](CSSC[C@H](NC(=O)[C@@H](N)CC(=O)O)C(=O)N[C@@H](CC(C)C)C(=O)NCC(=O)N[C@@H](Cc4ccccc4)C(=O)N[C@@H](CCSC)C(=O)N[C@@H](CCCNC(=N)N)C(=O)N[C@@H](CCCCN)C(=O)N2)NC(=O)[C@H](CSSC[C@@H](C(=O)N[C@@H](CCCCN)C(=O)N[C@@H](Cc2ccc(O)cc2)C(=O)N[C@H](C(=O)N[C@@H](Cc2ccccc2)C(N)=O)C(C)C)NC(=O)[C@H](Cc2c[nH]c4ccccc24)NC(=O)[C@H](CCCCN)NC(=O)[C@H](Cc2c[nH]cn2)NC(=O)[C@H]([C@@H](C)O)NC(=O)[C@H](CCCNC(=N)N)NC(=O)[C@H](CO)NC3=O)NC(=O)[C@H](CCCCN)NC(=O)[C@H](CC(=O)O)NC(=O)[C@H](CC(N)=O)NC(=O)[C@H](CC(=O)O)NC(=O)[C@@H]2CCCN2C1=O` [[2PAL22]GpTx-1(1-34)] (H-DCLGFMRKCIPDNDKCCRPNL[2Pal]CSRTHKWCKYVF-NH2; disulfide 2-17, 9-23, 16-30), the results for the IC50 against hNav1.7 and against hNav1.5 were 7 nM and 16000 nM, respectively.

On to `CC[C@H](C)[C@@H]1NC(=O)[C@@H]2CSSC[C@@H]3NC(=O)[C@H](C(C)C)NC(=O)[C@H](CC(C)C)NC(=O)[C@H](CC(N)=O)NC(=O)[C@@H]4CCCN4C(=O)[C@H](CCCNC(=N)N)NC(=O)[C@H](CSSC[C@H](NC(=O)[C@@H](N)CC(=O)O)C(=O)N[C@@H](CC(C)C)C(=O)NCC(=O)N[C@@H](Cc4ccccc4)C(=O)N[C@@H](CCSC)C(=O)N[C@@H](CCCNC(=N)N)C(=O)N[C@@H](CCCCN)C(=O)N2)NC(=O)[C@H](CSSC[C@@H](C(=O)N[C@@H](CCCCN)C(=O)N[C@@H](Cc2ccccn2)C(=O)N[C@H](C(=O)N[C@@H](Cc2ccccc2)C(N)=O)C(C)C)NC(=O)[C@H](Cc2c[nH]c4ccccc24)NC(=O)[C@H](CCCCN)NC(=O)[C@H](Cc2c[nH]cn2)NC(=O)[C@H]([C@@H](C)O)NC(=O)[C@H](CCCNC(=N)N)NC(=O)[C@H](CO)NC3=O)NC(=O)[C@H](CCCCN)NC(=O)[C@H](CC(=O)O)NC(=O)[C@H](CC(N)=O)NC(=O)[C@H](CC(=O)O)NC(=O)[C@@H]2CCCN2C1=O` [[2PAL32]GpTx-1(1-34)] (H-DCLGFMRKCIPDNDKCCRPNLVCSRTHKWCK[2Pal]VF-NH2; disulfide 2-17, 9-23, 16-30), for which the IC50 was 35 nM at hNav1.7 and above 10000 nM on hNav1.5.

Take `CC[C@H](C)[C@@H]1NC(=O)[C@@H]2CSSC[C@@H]3NC(=O)[C@H](C(C)C)NC(=O)[C@H](CC(C)C)NC(=O)[C@H](CC(N)=O)NC(=O)[C@@H]4CCCN4C(=O)[C@H](CCCNC(=N)N)NC(=O)[C@H](CSSC[C@H](NC(=O)[C@@H](N)CC(=O)O)C(=O)N[C@@H](CC(C)C)C(=O)NCC(=O)N[C@@H](Cc4ccccc4)C(=O)N[C@@H](CCSC)C(=O)N[C@@H](CCCNC(=N)N)C(=O)N[C@@H](CCCCN)C(=O)N2)NC(=O)[C@H](CSSC[C@@H](C(=O)N[C@@H](CCCCN)C(=O)N[C@@H](Cc2ccc(O)cc2)C(=O)N[C@@H](Cc2ccccn2)C(=O)N[C@@H](Cc2ccccc2)C(N)=O)NC(=O)[C@H](Cc2c[nH]c4ccccc24)NC(=O)[C@H](CCCCN)NC(=O)[C@H](Cc2c[nH]cn2)NC(=O)[C@H]([C@@H](C)O)NC(=O)[C@H](CCCNC(=N)N)NC(=O)[C@H](CO)NC3=O)NC(=O)[C@H](CCCCN)NC(=O)[C@H](CC(=O)O)NC(=O)[C@H](CC(N)=O)NC(=O)[C@H](CC(=O)O)NC(=O)[C@@H]2CCCN2C1=O` [[2PAL33]GpTx-1(1-34)] (H-DCLGFMRKCIPDNDKCCRPNLVCSRTHKWCKY[2Pal]F-NH2; disulfide 2-17, 9-23, 16-30): the IC50 at hNav1.7 was 10 nM; against hNav1.5 it was 3460 nM.

Consider `CC[C@H](C)[C@@H]1NC(=O)[C@@H]2CSSC[C@@H]3NC(=O)[C@H](C(C)C)NC(=O)[C@H](CC(C)C)NC(=O)[C@H](CC(N)=O)NC(=O)[C@@H]4CCCN4C(=O)[C@H](CCCNC(=N)N)NC(=O)[C@H](CSSC[C@H](NC(=O)[C@@H](N)CC(=O)O)C(=O)N[C@@H](CC(C)C)C(=O)NCC(=O)N[C@@H](Cc4cccnc4)C(=O)N[C@@H](Cc4ccccc4)C(=O)N[C@@H](CCCNC(=N)N)C(=O)N[C@@H](CCCCN)C(=O)N2)NC(=O)[C@H](CSSC[C@@H](C(=O)N[C@@H](CCCCN)C(=O)N[C@@H](Cc2ccc(O)cc2)C(=O)N[C@H](C(=O)N[C@@H](Cc2ccccc2)C(N)=O)C(C)C)NC(=O)[C@H](Cc2c[nH]c4ccccc24)NC(=O)[C@H](CCCCN)NC(=O)[C@H](Cc2c[nH]cn2)NC(=O)[C@H]([C@@H](C)O)NC(=O)[C@H](CCCNC(=N)N)NC(=O)[C@H](CO)NC3=O)NC(=O)[C@H](CCCCN)NC(=O)[C@H](CC(=O)O)NC(=O)[C@H](CC(N)=O)NC(=O)[C@H](CC(=O)O)NC(=O)[C@@H]2CCCN2C1=O` [[3Pal5;Phe6]GpTx-1(1-34)] (H-DCLG[3Pal]FRKCIPDNDKCCRPNLVCSRTHKWCKYVF-NH2; disulfide 2-17, 9-23, 16-30), for which the IC50 against hNav1.7 is 63 nM; at hNav1.5, above 10000 nM.

`CC[C@H](C)[C@@H]1NC(=O)[C@@H]2CSSC[C@@H]3NC(=O)[C@H](C(C)C)NC(=O)[C@H](CC(C)C)NC(=O)[C@H](CC(N)=O)NC(=O)[C@@H]4CCCN4C(=O)[C@H](CCCNC(=N)N)NC(=O)[C@H](CSSC[C@H](NC(=O)[C@@H](N)CC(=O)O)C(=O)N[C@@H](CC(C)C)C(=O)NCC(=O)N[C@@H](Cc4ccccc4)C(=O)N[C@@H](CCSC)C(=O)N[C@@H](CCCNC(=N)N)C(=O)N[C@@H](CCCCN)C(=O)N2)NC(=O)[C@H](CSSC[C@@H](C(=O)N[C@@H](CCCCN)C(=O)N[C@@H](Cc2ccc(O)cc2)C(=O)N[C@H](C(=O)N[C@@H](Cc2ccccc2)C(N)=O)C(C)C)NC(=O)[C@H](Cc2c[nH]c4ccccc24)NC(=O)[C@H](CCCCN)NC(=O)[C@H](Cc2c[nH]cn2)NC(=O)[C@H](Cc2ccc(C(=O)O)cc2)NC(=O)[C@H](CCCNC(=N)N)NC(=O)[C@H](CO)NC3=O)NC(=O)[C@H](CCCCN)NC(=O)[C@H](CC(=O)O)NC(=O)[C@H](CC(N)=O)NC(=O)[C@H](CC(=O)O)NC(=O)[C@@H]2CCCN2C1=O` [[4CO2-F26]GpTx-1(1-34)] (H-DCLGFMRKCIPDNDKCCRPNLVCSR[Phe(4-COOH)]HKWCKYVF-NH2; disulfide 2-17, 9-23, 16-30): the IC50 was 65 nM at hNav1.7 and above 10000 nM on hNav1.5.
